Experimental data taken from ChEMBL document CHEMBL5131521, “The N,N,O-Trisubstituted Hydroxylamine Isostere and Its Influence on Lipophilicity and Related Parameters” (ACS Med Chem Lett, 2022).
Converted amounts (≈) assume the structure as drawn.

What was measured:
[1] = Lipophilicity, logP of the compound by LC/UV/MS analysis; format: physicochemical; conditions: octanol/water
[2] = Lipophilicity, logD of compound at pH 7.4 by shake flask method; format: physicochemical; conditions: buffer
[3] = Aqueous solubility of compound in pH 7.4 phosphate buffer; format: physicochemical
[4] = Metabolic stability in human liver microsomes assessed as intrinsic clearance at 1 uM measured upto 60 mins by LC-MS/MS analysis; format: ADME, Microsome; conditions: 1 h
[5] = Metabolic stability in human liver microsomes assessed as half life at 1 uM measured upto 60 mins by LC-MS/MS analysis; format: ADME, Microsome; conditions: for t1/2: microsomes, 1 h, 1 µM; for half-life at 1 µM: liver microsomes
[6] = Metabolic stability in human liver microsomes assessed as compound remaining at 1 uM measured upto 60 mins in presence of NADPH for 15 mins by LC-MS/MS analysis; format: ADME, Microsome; conditions: for Stability: microsomes, 1 h, 1 µM; for remaining at 1 h, 1 µM: liver microsomes, read-out: Stability
[7] = Metabolic stability in mouse liver microsomes assessed as compound remaining at 1 uM measured upto 60 mins in presence of NADPH for 15 mins by LC-MS/MS analysis; format: ADME, Microsome; conditions: for Stability: microsomes, 1 h, 1 µM; for remaining at 1 h, 1 µM: liver microsomes, read-out: Stability
[8] = Plasma protein binding in human assessed as free fraction at 1 mM by equilibrium dialysis assay; format: ADME, cell-free
[9] = Metabolic stability in mouse liver microsomes assessed as intrinsic clearance at 1 uM measured upto 60 mins by LC-MS/MS analysis; format: ADME, Microsome; conditions: 1 h
[10] = Metabolic stability in mouse liver microsomes assessed as half life at 1 uM measured upto 60 mins by LC-MS/MS analysis; format: ADME, Microsome; conditions: for t1/2: microsomes, 1 h, 1 µM; for half-life at 1 µM: liver microsomes
[11] = system: HepG2; experiment: Cytotoxicity against human HepG2 cells assessed as inhibition of cell growth incubated for 3 days by trypan blue assay; format: functional, cell-based; conditions: HepG2, 72 h
[12] = Metabolic stability in mouse liver microsomes at 1 uM measured upto 60 mins by LC-MS/MS analysis; format: ADME, Microsome; conditions: 1 h

Q: Which logP [1] does the source give for `COc1ccccc1OCCON1CCOCC1` here?
A: 2.1

Q: What about the logD [2] of the same compound?
A: 1.3

Q: What about the solubility [3] of the same compound?
A: 293 µM (≈ 74.2 µg/mL)

Q: What about the CLint [4] of the same compound?
A: 14 µL/min/mg

Q: What about the t1/2 [5] of the same compound?
A: 98.54 min

Q: And the Stability [6]?
A: 91.54%

Q: What about the Stability [7] of the same compound?
A: 36.43%

Q: What about the fraction unbound [8] of the same compound?
A: 0.625

Q: What about the CLint [9] of the same compound?
A: 129 µL/min/mg

Q: And the t1/2 [10]?
A: 10.75 min

Q: For `c1ccc(COCCCCN2CCCCC2)cc1`, which logP [1] is on record?
A: 5.8

Q: And the logD [2]?
A: 0.9

Q: Which logP [1] does the source give for `CCCCCCC1CCc2ccccc2C1` (stereo not given) here?
A: 7.9

Q: What does the source list for `COc1ccccc1OCCOC1CCOCC1`?
A: logP [1]: 2.1; solubility [3]: 275 µM (≈ 69.4 µg/mL); CLint [4]: 17 µL/min/mg; t1/2 [5]: 83.41 min; Stability [6]: 82.92%; Stability [7]: 24.08%; fraction unbound [8]: 0.544; CLint [9]: 196 µL/min/mg; t1/2 [10]: 7.06 min

Q: Which logP [1] does the source give for `c1ccc(COCCCOC2CCCCC2)cc1` here?
A: 6.2

Q: For `c1ccc(COCCCCC2CCCCC2)cc1`, which logP [1] is on record?
A: 6.6

Q: For `CCCCCOC1CCc2ccccc2C1` (stereo not given), which logP [1] is on record?
A: 6.6

Q: With `c1ccc2c(c1)CCCC2OCCN1CCN(C2CCCCC2)CC1` (stereo not given) as the compound, how does the logP [1] read?
A: 5

Q: And the logD [2]?
A: 2.7

Q: What about the solubility [3] of the same compound?
A: 287 µM (≈ 98.3 µg/mL)

Q: And the t1/2 [5]?
A: 5.67 min

Q: And the Stability [6]?
A: 17.01%

Q: What about the remaining at 1 h, 1 µM [7] of the same compound?
A: 3.98%

Q: And the fraction unbound [8]?
A: 0.322

Q: What about the half-life at 1 µM [10] of the same compound?
A: 3.12 min

Q: With `CCCCCON1CCc2ccccc2C1` as the compound, how does the logP [1] read?
A: 5.9

Q: And the logD [2]?
A: 4.7

Q: What does the source list for `c1ccc(COCCCON2CCCCC2)cc1`?
A: logP [1]: 4.8; logD [2]: 3

Q: For `c1ccc(CCOC2CCCCC2)cc1`, which logP [1] is on record?
A: 6.2

Q: With `CCCCCCN1CCc2ccccc2C1` as the compound, how does the logP [1] read?
A: 5.3

Q: And the logD [2]?
A: 3.3

Q: With `O=C(CCCCCCC(=O)Nc1ccccc1)NO` [VORINOSTAT] as the compound, how does the IC50 [11] read?
A: 3.2 ng/mL (≈ 0.0121 µM)

Q: With `c1ccc(CCON2CCCCC2)cc1` as the compound, how does the logP [1] read?
A: 4.8

Q: And the logD [2]?
A: 3.2

Q: Which logP [1] does the source give for `c1ccc(CCCC2CCCCC2)cc1` here?
A: 6.6

Q: What does the source list for `c1ccc(CCCN2CCCCC2)cc1`?
A: logP [1]: 5.1; logD [2]: 1

Q: With `c1ccc2c(c1)CCCN2OCCN1CCN(C2CCCCC2)CC1` as the compound, how does the logP [1] read?
A: 5

Q: And the logD [2]?
A: 2.4

Q: What about the solubility [3] of the same compound?
A: > 300 µM

Q: And the t1/2 [5]?
A: 13.74 min

Q: And the Stability [6]?
A: 48.07%

Q: What about the remaining at 1 h, 1 µM [7] of the same compound?
A: 4.32%

Q: And the fraction unbound [8]?
A: 0.341

Q: What about the half-life at 1 µM [10] of the same compound?
A: 3.19 min

Q: Which logP [1] does the source give for `c1ccc2c(c1)CCCC2CCCN1CCN(C2CCCCC2)CC1` (stereo not given) here?
A: 6.2

Q: And the logD [2]?
A: 3.9

Q: What about the solubility [3] of the same compound?
A: 288 µM (≈ 98.1 µg/mL)

Q: And the CLint [4]?
A: 275 µL/min/mg

Q: What about the half-life at 1 µM [5] of the same compound?
A: 5.04 min

Q: And the remaining at 1 h, 1 µM [6]?
A: 13.6%

Q: And the remaining at 1 h, 1 µM [7]?
A: 3.7%

Q: What about the fraction unbound [8] of the same compound?
A: 0.0519

Q: And the CLint [9]?
A: 455 µL/min/mg

Q: And the half-life at 1 µM [10]?
A: 3.05 min

Q: Which logP [1] does the source give for `c1ccc2c(c1)CCCN2CCCN1CCN(C2CCCCC2)CC1` here?
A: 5.3

Q: What about the logD [2] of the same compound?
A: 1.8

Q: And the solubility [3]?
A: 275 µM (≈ 93.9 µg/mL)

Q: And the half-life at 1 µM [5]?
A: 5.06 min

Q: What about the remaining at 1 h, 1 µM [6] of the same compound?
A: 13.7%

Q: What about the remaining at 1 h, 1 µM [7] of the same compound?
A: 8.5%

Q: What about the fraction unbound [8] of the same compound?
A: 0.153

Q: What about the half-life at 1 µM [10] of the same compound?
A: 4.07 min

Q: What does the source list for `COc1ccccc1OCCCC1CCOCC1`?
A: logP [1]: 3.4; solubility [3]: 244 µM (≈ 61.1 µg/mL); CLint [4]: 77 µL/min/mg; t1/2 [5]: 18.07 min; Stability [12]: Unstable; Stability [6]: 50.46%; Stability ([7]; BLD = below limit of detection): Bld; fraction unbound [8]: 0.106

Q: For `COc1ccccc1OCCCN1CCOCC1`, which logP [1] is on record?
A: 2.3

Q: What about the logD [2] of the same compound?
A: 1.3

Q: What about the solubility [3] of the same compound?
A: 273 µM (≈ 68.6 µg/mL)

Q: And the CLint [4]?
A: < 5 µL/min/mg

Q: And the half-life at 1 µM [5]?
A: > 300 min

Q: What about the remaining at 1 h, 1 µM [6] of the same compound?
A: 91%

Q: What about the remaining at 1 h, 1 µM [7] of the same compound?
A: 10.2%

Q: And the fraction unbound [8]?
A: 0.573

Q: What about the CLint [9] of the same compound?
A: 315 µL/min/mg

Q: What about the half-life at 1 µM [10] of the same compound?
A: 4.4 min
